Laboratory results reported in ChEMBL document CHEMBL5465560, “Selectivity Literature for EUbOPEN Chemogenomic Library” (2024).

Columns and labels:
[1] = biological target: T1, Dual specificity protein kinase TTK (Homo sapiens) (UniProt P33981); assay: Selectivity interaction (KinomeScan (DiscoverX)) EUB0000092b TTK; conditions: at 10 µM
T1 sequence (whole entry): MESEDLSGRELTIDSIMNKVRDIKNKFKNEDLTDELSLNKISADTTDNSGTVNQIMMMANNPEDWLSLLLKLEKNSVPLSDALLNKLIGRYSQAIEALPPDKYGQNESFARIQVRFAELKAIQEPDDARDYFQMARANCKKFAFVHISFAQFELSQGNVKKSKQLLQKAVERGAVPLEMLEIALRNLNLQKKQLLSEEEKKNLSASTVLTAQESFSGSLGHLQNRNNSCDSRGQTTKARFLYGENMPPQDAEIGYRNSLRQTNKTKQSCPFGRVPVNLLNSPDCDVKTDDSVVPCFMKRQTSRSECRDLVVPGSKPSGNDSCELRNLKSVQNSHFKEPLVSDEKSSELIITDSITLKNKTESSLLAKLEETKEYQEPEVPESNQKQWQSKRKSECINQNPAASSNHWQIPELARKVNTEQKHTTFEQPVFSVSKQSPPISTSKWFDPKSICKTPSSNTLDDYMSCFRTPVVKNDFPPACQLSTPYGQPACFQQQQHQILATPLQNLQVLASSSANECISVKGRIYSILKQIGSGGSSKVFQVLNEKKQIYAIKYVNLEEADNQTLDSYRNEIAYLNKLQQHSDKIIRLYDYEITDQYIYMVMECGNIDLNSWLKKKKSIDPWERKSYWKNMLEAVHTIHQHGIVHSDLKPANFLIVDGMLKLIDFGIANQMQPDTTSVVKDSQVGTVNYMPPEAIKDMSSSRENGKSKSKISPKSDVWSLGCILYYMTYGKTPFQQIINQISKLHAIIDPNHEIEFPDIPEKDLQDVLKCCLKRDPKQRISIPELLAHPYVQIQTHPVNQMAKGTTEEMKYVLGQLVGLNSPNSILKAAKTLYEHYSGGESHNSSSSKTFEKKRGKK

[2] = biological target: Fibroblast growth factor receptor 4 (Homo sapiens, UniProt P22455); assay: Selectivity interaction (Upstate Kinase Profiler service (Millipore)) EUB0000056c FGFR4; conditions: at 1 µM
[3] = biological target: Tyrosine-protein kinase receptor Tie-1 (Homo sapiens) (UniProt P35590); assay: Selectivity interaction (KinomeScan (DiscoverX)) EUB0001079a TIE1; conditions: at 1 µM
[4] = biological target: Delta-type opioid receptor (Homo sapiens, UniProt P41143); assay: Selectivity interaction (GPCR panel (PDSP screen)) EUB0001079a OPRD1; conditions: at 10 µM
[5] = biological target: T2, Activin receptor type-1B (Homo sapiens) (UniProt P36896); assay: Selectivity interaction (Kinase panel (Z-LYTE Assay)) EUB0001632a ACVR1B; conditions: at 10 µM
T2 sequence (whole entry): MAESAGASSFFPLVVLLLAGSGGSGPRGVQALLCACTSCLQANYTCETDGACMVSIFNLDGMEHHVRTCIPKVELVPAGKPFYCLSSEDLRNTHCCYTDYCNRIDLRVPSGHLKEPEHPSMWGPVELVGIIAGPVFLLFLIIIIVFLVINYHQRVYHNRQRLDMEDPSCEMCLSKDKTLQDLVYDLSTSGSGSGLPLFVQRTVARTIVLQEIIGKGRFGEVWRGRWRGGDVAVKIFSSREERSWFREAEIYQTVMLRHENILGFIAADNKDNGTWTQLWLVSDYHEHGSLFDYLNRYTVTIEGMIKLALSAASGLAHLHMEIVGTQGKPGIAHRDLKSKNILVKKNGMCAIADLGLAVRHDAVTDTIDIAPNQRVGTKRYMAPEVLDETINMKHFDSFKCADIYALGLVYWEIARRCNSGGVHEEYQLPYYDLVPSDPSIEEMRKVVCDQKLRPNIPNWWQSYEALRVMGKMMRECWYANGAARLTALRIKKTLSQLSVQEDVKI

[6] = biological target: Rho-associated protein kinase 1 (Homo sapiens) (UniProt Q13464); assay: Selectivity interaction (Kinase panel (Z-LYTE Assay)) EUB0001632a ROCK1; conditions: at 10 µM
[7] = biological target: Leucine-rich repeat serine/threonine-protein kinase 2 (Homo sapiens, UniProt Q5S007); assay: Selectivity interaction (Kinase panel (Invitrogen)) EUB0000639a LRRK2; conditions: at 200 nM
[8] = biological target: T3, Serine/threonine-protein kinase Sgk3 (Homo sapiens) (UniProt Q96BR1); assay: Selectivity interaction (KinomeScan (DiscoverX)) EUB0000045b SGK3
T3 sequence (whole entry): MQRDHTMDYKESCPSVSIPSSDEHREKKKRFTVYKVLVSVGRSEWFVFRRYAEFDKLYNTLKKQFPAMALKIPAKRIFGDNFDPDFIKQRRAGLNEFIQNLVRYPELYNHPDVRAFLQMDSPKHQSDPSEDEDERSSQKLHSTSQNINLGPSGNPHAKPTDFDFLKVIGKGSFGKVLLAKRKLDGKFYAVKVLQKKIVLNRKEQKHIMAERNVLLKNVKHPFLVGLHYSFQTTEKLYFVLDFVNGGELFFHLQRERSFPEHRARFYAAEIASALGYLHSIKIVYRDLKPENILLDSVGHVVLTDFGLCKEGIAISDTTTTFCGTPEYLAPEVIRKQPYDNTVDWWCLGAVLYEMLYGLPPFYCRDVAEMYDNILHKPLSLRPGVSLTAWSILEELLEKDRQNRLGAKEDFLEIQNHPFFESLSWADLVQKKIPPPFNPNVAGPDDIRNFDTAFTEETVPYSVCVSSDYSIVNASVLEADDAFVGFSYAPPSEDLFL

Sequence of Tyrosine-protein kinase receptor Tie-1 (Homo sapiens) (P35590 whole entry): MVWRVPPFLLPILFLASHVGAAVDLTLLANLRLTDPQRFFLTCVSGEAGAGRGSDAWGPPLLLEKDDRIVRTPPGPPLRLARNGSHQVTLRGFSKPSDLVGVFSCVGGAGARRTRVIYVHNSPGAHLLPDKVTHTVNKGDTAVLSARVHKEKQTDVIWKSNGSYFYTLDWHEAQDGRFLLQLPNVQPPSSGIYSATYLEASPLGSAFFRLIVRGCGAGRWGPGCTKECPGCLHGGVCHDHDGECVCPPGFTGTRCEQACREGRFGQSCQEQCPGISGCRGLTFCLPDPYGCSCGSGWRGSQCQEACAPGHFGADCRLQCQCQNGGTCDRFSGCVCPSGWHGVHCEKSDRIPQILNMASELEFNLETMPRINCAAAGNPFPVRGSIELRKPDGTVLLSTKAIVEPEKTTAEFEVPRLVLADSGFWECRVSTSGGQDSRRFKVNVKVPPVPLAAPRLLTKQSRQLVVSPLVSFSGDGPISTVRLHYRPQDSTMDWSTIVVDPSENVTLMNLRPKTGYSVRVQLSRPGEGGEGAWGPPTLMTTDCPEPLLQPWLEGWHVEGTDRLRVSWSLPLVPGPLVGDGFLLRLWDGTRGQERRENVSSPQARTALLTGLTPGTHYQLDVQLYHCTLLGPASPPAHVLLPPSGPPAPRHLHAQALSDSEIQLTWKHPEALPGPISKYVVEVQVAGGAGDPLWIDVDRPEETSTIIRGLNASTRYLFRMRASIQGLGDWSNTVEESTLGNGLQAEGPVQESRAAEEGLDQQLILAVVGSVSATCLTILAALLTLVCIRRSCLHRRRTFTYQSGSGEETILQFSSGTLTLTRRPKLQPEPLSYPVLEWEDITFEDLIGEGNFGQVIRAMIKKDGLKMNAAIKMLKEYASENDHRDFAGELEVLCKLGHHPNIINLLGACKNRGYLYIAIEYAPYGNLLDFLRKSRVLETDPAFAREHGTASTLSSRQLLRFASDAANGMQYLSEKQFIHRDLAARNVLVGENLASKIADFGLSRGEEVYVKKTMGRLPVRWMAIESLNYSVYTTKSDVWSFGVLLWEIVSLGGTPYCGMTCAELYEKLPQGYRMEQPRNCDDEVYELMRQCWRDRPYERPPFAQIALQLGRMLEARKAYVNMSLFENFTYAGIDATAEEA
Sequence of Delta-type opioid receptor (P41143 whole entry): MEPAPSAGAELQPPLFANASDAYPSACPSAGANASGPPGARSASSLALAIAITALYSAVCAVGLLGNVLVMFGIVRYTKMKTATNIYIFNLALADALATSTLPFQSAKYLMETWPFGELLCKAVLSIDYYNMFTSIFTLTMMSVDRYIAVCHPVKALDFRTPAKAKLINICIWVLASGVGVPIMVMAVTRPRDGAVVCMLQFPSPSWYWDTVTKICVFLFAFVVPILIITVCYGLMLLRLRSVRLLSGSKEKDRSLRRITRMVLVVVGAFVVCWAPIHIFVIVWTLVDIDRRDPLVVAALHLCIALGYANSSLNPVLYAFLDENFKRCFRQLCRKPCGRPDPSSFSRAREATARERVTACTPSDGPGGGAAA
Sequence of Fibroblast growth factor receptor 4 (P22455 22-802 limits assumed): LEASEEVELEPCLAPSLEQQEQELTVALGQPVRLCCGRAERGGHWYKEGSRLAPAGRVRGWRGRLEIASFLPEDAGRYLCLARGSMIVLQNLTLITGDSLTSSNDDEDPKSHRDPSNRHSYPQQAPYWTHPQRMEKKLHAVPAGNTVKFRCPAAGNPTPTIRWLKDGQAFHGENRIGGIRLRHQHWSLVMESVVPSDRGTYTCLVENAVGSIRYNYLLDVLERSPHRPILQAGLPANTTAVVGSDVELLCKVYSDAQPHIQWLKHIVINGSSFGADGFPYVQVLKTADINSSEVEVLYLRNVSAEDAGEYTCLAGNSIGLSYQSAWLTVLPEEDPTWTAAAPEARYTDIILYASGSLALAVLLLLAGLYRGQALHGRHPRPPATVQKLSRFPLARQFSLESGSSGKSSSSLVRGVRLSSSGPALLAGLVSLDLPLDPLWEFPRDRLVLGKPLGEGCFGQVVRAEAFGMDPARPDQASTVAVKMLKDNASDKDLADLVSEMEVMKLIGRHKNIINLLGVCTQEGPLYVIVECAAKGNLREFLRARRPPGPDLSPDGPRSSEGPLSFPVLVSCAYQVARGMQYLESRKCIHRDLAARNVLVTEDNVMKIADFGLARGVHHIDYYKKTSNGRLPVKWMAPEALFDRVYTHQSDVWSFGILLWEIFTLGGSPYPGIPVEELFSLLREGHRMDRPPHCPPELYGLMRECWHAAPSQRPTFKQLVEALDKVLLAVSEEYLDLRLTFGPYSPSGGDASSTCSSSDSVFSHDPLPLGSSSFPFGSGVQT
Sequence of Rho-associated protein kinase 1 (Homo sapiens) (Q13464 2-1354 limits assumed): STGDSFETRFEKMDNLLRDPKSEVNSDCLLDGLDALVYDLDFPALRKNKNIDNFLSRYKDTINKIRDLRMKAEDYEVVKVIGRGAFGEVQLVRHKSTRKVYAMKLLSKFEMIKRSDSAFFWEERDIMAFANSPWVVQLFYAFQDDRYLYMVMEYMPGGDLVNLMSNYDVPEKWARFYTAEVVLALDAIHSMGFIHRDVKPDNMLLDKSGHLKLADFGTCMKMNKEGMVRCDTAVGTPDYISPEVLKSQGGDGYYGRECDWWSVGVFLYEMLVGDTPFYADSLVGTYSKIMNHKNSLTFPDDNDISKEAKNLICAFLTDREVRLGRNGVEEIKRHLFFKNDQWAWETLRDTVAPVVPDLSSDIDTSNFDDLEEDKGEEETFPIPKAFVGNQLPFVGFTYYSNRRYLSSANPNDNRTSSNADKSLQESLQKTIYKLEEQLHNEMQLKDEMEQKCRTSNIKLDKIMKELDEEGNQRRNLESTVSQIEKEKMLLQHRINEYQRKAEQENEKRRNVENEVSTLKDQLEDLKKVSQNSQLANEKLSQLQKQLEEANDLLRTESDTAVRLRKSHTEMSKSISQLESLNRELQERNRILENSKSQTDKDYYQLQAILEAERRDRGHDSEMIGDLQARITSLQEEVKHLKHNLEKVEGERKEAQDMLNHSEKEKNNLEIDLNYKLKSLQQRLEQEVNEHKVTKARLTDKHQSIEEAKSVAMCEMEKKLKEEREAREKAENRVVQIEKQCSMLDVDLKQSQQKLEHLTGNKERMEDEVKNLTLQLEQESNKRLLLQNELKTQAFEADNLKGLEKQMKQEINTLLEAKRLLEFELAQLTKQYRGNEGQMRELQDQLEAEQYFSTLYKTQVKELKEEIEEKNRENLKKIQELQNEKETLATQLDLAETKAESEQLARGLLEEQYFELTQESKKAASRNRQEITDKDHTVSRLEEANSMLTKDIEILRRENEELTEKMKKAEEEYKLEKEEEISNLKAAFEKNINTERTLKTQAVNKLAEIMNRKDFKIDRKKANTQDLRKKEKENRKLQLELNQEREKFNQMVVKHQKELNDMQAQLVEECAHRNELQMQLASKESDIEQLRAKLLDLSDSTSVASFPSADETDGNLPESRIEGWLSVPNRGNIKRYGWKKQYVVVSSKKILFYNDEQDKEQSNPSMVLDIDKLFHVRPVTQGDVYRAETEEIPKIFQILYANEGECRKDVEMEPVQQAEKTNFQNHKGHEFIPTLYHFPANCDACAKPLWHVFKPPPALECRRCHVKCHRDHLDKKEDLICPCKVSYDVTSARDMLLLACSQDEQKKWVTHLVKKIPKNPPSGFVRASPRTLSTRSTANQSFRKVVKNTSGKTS

CCC(=O)N1CCN(c2ccc(-n3c(=O)ccc4cnc5ccc(-c6cnc7ccccc7c6)cc5c43)cc2C(F)(F)F)CC1 was tested, and the % of control [1] was 9.6%.

Cc1ccc(-c2ccc3c(ccc4sc5c(c43)NC[C@@H](C)NC5=O)n2)cn1 was tested, and the % of inhibition [2] was 8%.

Compound Nc1cnc(N2CCc3cc(S(=O)(=O)Nc4c(F)cc(Cl)cc4F)cc(N4CCCC4=O)c32)nc1 [TP-020n] has a % of control [3] of 100% and a % of inhibition [4] of -1.24%.

Compound Cn1cc(-n2cnc3c(NCc4nc5cc(Cl)c(Cl)cc5[nH]4)nc(N4CCOCC4)nc32)cn1 has a % of control [5] of 5.65% and a % of control [6] of -2.74%.

With CC[C@@H]1[C@H](F)C(=O)N[C@@H]1COc1nccc2cc(C(N)=O)c(OC)cc12 [ZIMLOVISERTIB] the % of inhibition [7] was 85.1%.

Compound C=CC(=O)Nc1cc(-n2c(=O)ccc3cnc4ccc(-c5ccc(NS(C)(=O)=O)cc5)cc4c32)ccc1C has a % of control ([8]; at 1 µM) of 100% and a % of control ([8]; at 10 µM) of 100%.
